The test system of this test is VCaP prostate cancer cell line. Kind of test: Inhibition of mibolerone-induced VCaP cell proliferation (WST-1). The class given is cell-based. As to conditions: mibolerone-induced (usually 0.1 nM), 4-5 days. How it is done: The IC50 value of the test compound for inhibition of mibolerone-induced VCaP cell proliferation was measured.
Cell Proliferation Assays
The ability of test compounds to inhibit prostate cancer cell growth was studied by measuring inhibition of cell proliferation using androgen-sensitive VCaP prostate cancer cell line. […] Cell proliferation was measured using WST-1 Cell Proliferation Assay (Roche).
(In general: Tetrazolium dyes change colour on reduction, which living cells bring about.)

Data on 16 molecules can be found in US11046713B2, “Androgen receptor modulating compounds” (ORION CORPORATION, priority 2009, dated 2021).

Molecules are shown by their SMILES.

Consider `C[C@@H](Cn1ccc(-c2ccc(C#N)c(Cl)c2)n1)NC(=O)c1[nH]nc2c1COCC2` [Example 338, (S)—N-(1-(3-(3-chloro-4-cyanophenyl)-1H-pyrazol-1-yl)propan-2-yl)-2,4,6,7-tetrahydropyrano [4,3-c]pyrazole-3-carboxamide], for which the IC50 (in general, the midpoint of a concentration-inhibition curve) (Homo sapiens, VCaP) turned out to be 340 nM.

For the molecule `Cc1cc(-c2ccn(C[C@H](C)NC(=O)c3cc(-c4ccco4)n[nH]3)n2)ccc1C#N` [Example 32, (S)—N-(1-(3-(4-cyano-3-methylphenyl)-1H-pyrazol-1-yl)propan-2-yl)-3-(furan-2-yl)-1H-pyrazole-5-carboxamide], the midpoint of inhibition (Homo sapiens, VCaP), the IC50, lay at 560 nM.

In turn, `Cc1c(-c2ccn(C[C@H](C)NC(=O)c3csc(C(C)O)n3)n2)ccc(C#N)c1Cl` (stereo partly drawn) [Example 186, N—((S)-1-(3-(3-chloro-4-cyano-2-methylphenyl)-1H-pyrazol-1-yl)propan-2-yl)-2-(1-hydroxyethyl)thiazole-4-carboxamide] displayed an IC50 (Homo sapiens, VCaP) of 310 nM.

In the case of `C[C@@H](Cn1ccc(-c2cc(F)c(C#N)c(Cl)c2)n1)NC(=O)c1cn2cccnc2n1` [Example 324, (S)—N-(1-(3-(3-chloro-4-cyano-5-fluorophenyl)-1H-pyrazol-1-yl)propan-2-yl)imidazo [1,2-a]pyrimidine-2-carboxamide], inhibition (Homo sapiens, VCaP) was half-maximal at 1000 nM (IC50).

The molecule `C[C@H](Cn1ccc(-c2ccc(C#N)c(Cl)c2)n1)NC(=O)c1csc(N2CCOCC2)n1` [Example 132, (R)—N-(1-(3-(3-chloro-4-cyanophenyl)-1H-pyrazol-1-yl)propan-2-yl)-2-morpholinothiazole-4-carboxamide] showed an IC50 (Homo sapiens, VCaP) of 210 nM.

Consider `Cc1nc(C(=O)N[C@@H](C)Cn2ccc(-c3cc(F)c(C#N)c(Cl)c3)n2)c[nH]1` [Example 249, (S)—N-{1-[3-(3-Chloro-4-cyano-5-fluorophenyl)-1H-pyrazol-1-yl]propan-2-yl}-2-methyl-1H-imidazole-4-carboxamide], for which the half-inhibitory concentration (IC50) (Homo sapiens, VCaP) was 320 nM.

For the setting “Homo sapiens, VCaP”, `Cc1noc(C(=O)N[C@@H](C)Cn2ccc(-c3ccc(C#N)c(Cl)c3)n2)n1` [Example 103, (S)—N-(1-(3-(3-chloro-4-cyanophenyl)-1H-pyrazol-1-yl)propan-2-yl)-3-methyl-1,2,4-oxadiazole-5-carboxamide] displayed an IC50 of 230 nM.

With `CCc1noc(C(=O)N[C@@H](C)Cn2ccc(-c3ccc(C#N)c(Cl)c3)n2)n1` [Example 91, (S)—N-(1-(3-(3-chloro-4-cyanophenyl)-1H-pyrazol-1-yl)propan-2-yl)-3-ethyl-1,2,4-oxadiazole-5-carboxamide], for the setting “Homo sapiens, VCaP”, half-maximal inhibition (IC50) required 330 nM.

With `O=C(NCCc1ccc(-c2ccc(Cl)c(Cl)c2)o1)c1cc(C(=O)N2CCOCC2)n[nH]1` [Example 8, N-(2-(5-(3,4-dichlorophenyl)furan-2-yl)ethyl)-3-(morpholine-4-carbonyl)-1H-pyrazole-5-carboxamide], 1600 nM corresponded to half-maximal inhibition (Homo sapiens, VCaP) (IC50).

`Cc1nc(C(=O)N[C@@H](C)Cn2ccc(-c3ccc(C#N)c(Cl)c3)n2)c[nH]1` [Example 248, (S)—N-{1-[3-(3-Chloro-4-cyanophenyl)-1H-pyrazol-1-yl]propan-2-yl}-2-methyl-H-imidazole-4-carboxamide] had an IC50 of 490 nM.

Molecule `Cc1cc(-c2ccn(CCNC(=O)c3cc(-c4cccnc4)n[nH]3)n2)ccc1C#N` [Example 53, N-(2-(3-(4-cyano-3-methylphenyl)-1H-pyrazol-1-yl)ethyl)-3-(pyridin-3-yl)-1H-pyrazole-5-carboxamide] gave an IC50 (Homo sapiens, VCaP) of 500 nM.

Turning to `Cc1nc(-c2cc(C(=O)N[C@@H](C)Cn3ccc(-c4ccc(C#N)c(Cl)c4)n3)n[nH]2)cs1` [Example 94, (S)—N-(1-(3-(3-chloro-4-cyanophenyl)-1H-pyrazol-1-yl)propan-2-yl)-5-(2-methylthiazol-4-yl)-1H-pyrazole-3-carboxamide], half-maximal inhibition (Homo sapiens, VCaP) (IC50) required 790 nM.

For the setting “Homo sapiens, VCaP”, `C[C@@H](Cn1ccc(-c2ccc(C#N)c(Cl)c2)n1)NC(=O)c1csc(-c2cn[nH]c2)n1` [Example 206, (S)—N-(1-(3-(3-chloro-4-cyanophenyl)-1H-pyrazol-1-yl)propan-2-yl)-2-(1H-pyrazol-4-yl)thiazole-4-carboxamide] yielded a concentration for half-maximal inhibition (IC50) of 490 nM.

Take `N#Cc1ccc(-c2ccn(CCNC(=O)c3cc(-c4cccnc4)n[nH]3)n2)cc1C#N` [Example 52, N-(2-(3-(3,4-dicyanophenyl)-1H-pyrazol-1-yl)ethyl)-3-(pyridin-3-yl)-1H-pyrazole-5-carboxamide]: where the note is “Homo sapiens, VCaP”, the IC50 came out at 450 nM.

`C[C@H](CNC(=O)c1csc(CC#N)n1)n1ccc(-c2cc(F)c(C#N)c(F)c2)n1` [Example 222, (R)—N-(2-(3-(4-cyano-3,5-difluorophenyl)-1H-pyrazol-1-yl)propyl)-2-(cyanomethyl)thiazole-4-carboxamide] displayed an IC50 (Homo sapiens, VCaP) of 250 nM.

Where the note is “Homo sapiens, VCaP”, `CC(O)c1cc(C(=O)N[C@@H](C)Cn2ccc(-c3ccc(C#N)c(Cl)c3)n2)no1` (stereo partly drawn) [Example 124, N—((S)-1-(3-(3-chloro-4-cyanophenyl)-1H-pyrazol-1-yl)propan-2-yl)-5-(1-hydroxyethyl)isoxazole-3-carboxamide] gave an IC50 of 430 nM.
